According to patent EP4682145A1, “BENZOHETEROCYCLIC COMPOUND, AND PREPARATION METHOD THEREFOR AND USE THEREOF” (Cascade Pharmaceuticals, Inc., priority 2023, dated 2024):

Tests used:
human FFAR1 (GPR40) = molecular target: T1, human FFAR1 (GPR40) (Homo sapiens, UniProt O14842); test: NFAT-RE-based reporter gene activity assay (Dual-Glo luciferase) for GPR40 agonistic activity in co-transfected HEK293T cells; format: cell-based; conditions: 4-hour treatment
T1 construct: Flag; expressed in transfected cells; host or cells: HEK293T
Procedure, shortened: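 HEK293T cells co-transfected with human FFAR1, NFAT-RE firefly luciferase and TK-Renilla plasmids; 24 h later treated 4 h with 10 half-log compound dilutions from 1 µM. Firefly/Renilla ratio normalised to DMSO; EC50 from four-parameter fit.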

[1] = Pharmacokinetic evaluation in ICR mice (intravenous and gavage); format: in vivo; conditions: for CL_obs / Vss_obs / half-life: Intravenous Administration (5 mg/kg); for bioavailability: gavage 10 mg/kg versus intravenous 5 mg/kg
Experimental: The bioavailability and pharmacokinetic behavior of the compounds were evaluated in mice. 6 male ICR mice with similar body weights were selected, among which 3 mice were administered a single gavage dose of 10 mg/kg, and the other 3 mice were intravenously administered a single dose of 5 mg/kg. Blood samples were collected at 5 minutes (intravenous administration), 15 minutes, 30 minutes, 1 hour, 2 hours, 4 hours, and 7 hours after administration. The plasma samples were analyzed for concentration by LCMS/MS, and the pharmacokinetic parameters of the compounds were analyzed using the PKSolver free tool and non-compartmental analysis (NCA) software.
Experimental animals: Each compound test group included 6 healthy male ICR mice, weighing 18-25 g, purchased from Charles River, which were randomly divided into 2 groups with 3 mice each.
Preparation of formulations: A certain amount of the compound was weighed and added to 2% DMSO + 15% Solutol + 83% physiological saline to form a clear solution.
Dosage: ICR mice were fasted overnight and administered the compound at a dose of 10 mg/kg via gavage or 5 mg/kg via intravenous injection. The dosing volumes for gavage and intravenous administration were 10 mL/kg and 5 mL/kg, respectively. Uniform feeding was conducted 2 hours after administration.
Sample collection: Approximately 30 µL of blood was collected from the great saphenous vein at 5 minutes (intravenous administration), 15 minutes, 30 minutes, 1 hour, 2 hours, 4 hours, and 7 hours after administration. The blood was placed into commercially available tubes containing K2-EDTA. The blood samples were then centrifuged at 4°C and 4600 rpm for 5 minutes to obtain plasma samples. All plasma samples were rapidly frozen on dry ice and maintained at -70°C until LCMS/MS analysis was performed.
Sample preparation: 10 µL of plasma sample was aspirated and precipitated with a methanol solution containing 50 nmol/L of α-naphthoflavone (internal standard). The mixture was thoroughly mixed and centrifuged at 4°C and 14000 rpm for 5 minutes. Then, 75 µL of the supernatant was mixed with 75 µL of methanol for LCMS/MS analysis.

normal C57BL6/J mice = test: Oral glucose tolerance test (OGTT) in normal C57BL6/J mice; format: in vivo; conditions: 1 mg/kg gavage, single dose; for AUC 0-120 minutes: blood glucose AUC
Experimental: Eighteen normal male C57BL6/J mice (8-9 weeks old) were selected and randomly divided into 3 groups based on body weight and blood glucose levels, with 6 mice in each group. On the day of the OGTT, fasting was initiated at 8:30 AM. At 11:30 AM, drug interventions were administered via gavage (vehicle control, compound 14, 1 mg/kg, and compound 169, 1 mg/kg). At 1:30 PM, glucose (2 g/kg) was administered via gavage, while the blank control group received the vehicle control orally (2% DMSO + 15% solutol + 83% DDW solution) at a dosing volume of 10 mL/kg. Blood glucose measurements during the OGTT were taken at the following time points: 0, 15, 30, 60, 90, and 120 minutes after glucose administration.
Blood glucose levels were measured at 0, 15, 30, 60, and 120 minutes after glucose administration. The area under the curve (AUC) for blood glucose over 120 minutes was calculated. [formula]
Note: BG0, BG15, BG30, BG60, BG90, and BG120 represent the blood glucose levels at 0, 15, 30, 60, 90, and 120 minutes after glucose administration, respectively.
(§1) Data were expressed as mean ± standard deviation. One-way ANOVA was employed for statistical analysis, with p < 0.05 considered statistically significant.

[2] = Tissue distribution evaluation in ICR mice; format: in vivo; conditions: oral gavage 5 mg/kg, 1 hour after administration
Experimental: Experimental protocol: The tissue distribution characteristics of the compounds were evaluated in mice. 2 male ICR mice with similar body weights were selected, and the compound was administered via oral gavage at a dose of 5 mg/kg. The animals were sacrificed at 1 hour, and blood, liver, and heart were collected. After sample processing, the concentration of the compounds in each matrix was analyzed by LCMS/MS, and the average values of each group were calculated to evaluate the tissue/plasma ratio of the compounds.
Experimental animals: 2 healthy male ICR mice were purchased from Charles River.
Preparation of formulations: A certain amount of the compound was weighed and added to 2% DMSO + 15% Solutol + 83% distilled water to form a clear solution.
Dosage: ICR mice were fasted overnight and administered the compound via oral gavage at a dose of 5 mg/kg. The volume of oral gavage administration was 10 mL/kg. Uniform feeding was conducted 2 hours after administration.
Sample collection: Animals were sacrificed 1 hour after administration, and blood, liver, and heart tissues were collected. The blood was placed into commercially available tubes containing K2-EDTA. The blood samples were then centrifuged at 4°C and 4600 rpm for 5 minutes to obtain plasma samples. All plasma and tissue samples were rapidly frozen on dry ice and maintained at -70°C until LCMS/MS analysis was performed.
Sample preparation: 50 µL of the plasma sample was aspirated, precipitated with methanol, thoroughly mixed, and centrifuged at 4°C and 14000 rpm for 5 minutes. Then, 75 µL of the supernatant was mixed with 75 µL of methanol for LCMS/MS analysis. Tissue samples were homogenized using methanol. After homogenization, the mixture was centrifuged at 14,000 rpm for 5 minutes at 4°C. Subsequently, 75 µL of the supernatant was mixed with 75 µL of methanol for LCMS/MS analysis.

[3] = system: normal male C57BL6/J mice; test: In vivo hypoglycemia risk assay in fasted normal C57BL6/J mice; conditions: mouse, in vivo, po, 10 mg/kg
Experimental: The blank control group was orally administered with the vehicle control (2% DMO + 15% solutol + 83% DDW solution), with a dosing volume of 10 mL/kg. […] […] Data were expressed as mean ± standard deviation. One-way ANOVA was employed for statistical analysis, with p < 0.05 considered statistically significant.

C57BL6/J mice = test: In vivo pharmacodynamic assay for non-alcoholic fatty liver disease (high-fat, high-cholesterol, high-fructose diet mice); conditions: 1 mpk oral gavage once daily for 28 days
Experimental: Normal male C57BL6/J mice ([…]) were fed a high-fat, high-cholesterol, high-fructose diet (D09100310, Research Diets) for 20 weeks. Based on body weight and biochemical data, the mice were randomly divided into groups, with 6 mice per group. The compound 169 (0.03, 0.1, and 0.6 mg/kg) was administered via oral gavage. The positive control was MGL3196 (1 mg/kg), and the blank control group consisted of mice of the same strain and age fed a normal diet for the same duration. The blank control and model control groups were given the vehicle (15% solutol + 85% DDW), totaling 6 groups. Administration was performed once daily for 28 days. After overnight fasting, on day 29 at the experimental endpoint, blood was collected from the heart after CO2 euthanasia. Serum ALT and AST biochemical indicators were measured, and liver tissue was harvested for hepatic hydroxyproline content determination.
Blood was collected using anticoagulant-free tubes, allowed to stand at room temperature for 30 minutes, and then centrifuged at 4000 rpm for 10 minutes to separate serum, which was tested by Dian Diagnostics. Approximately 50 mg of liver tissue was taken from each mouse and tested according to the hydroxyproline assay kit method (Nanjing Jiancheng, Cat. No.: A030-2-1).
as §1

[4] = mouse, plasma, po, Gavage Administration (10 mg/kg)
[5] = mouse, plasma, po, Gavage Administration (10 mg/kg), read-out: AUC0-7 h
[6] = male, ICR, mouse, plasma, po, Gavage Administration (10 mg/kg)
[7] = numeric values of positive controls

T1 sequence (O14842 whole entry): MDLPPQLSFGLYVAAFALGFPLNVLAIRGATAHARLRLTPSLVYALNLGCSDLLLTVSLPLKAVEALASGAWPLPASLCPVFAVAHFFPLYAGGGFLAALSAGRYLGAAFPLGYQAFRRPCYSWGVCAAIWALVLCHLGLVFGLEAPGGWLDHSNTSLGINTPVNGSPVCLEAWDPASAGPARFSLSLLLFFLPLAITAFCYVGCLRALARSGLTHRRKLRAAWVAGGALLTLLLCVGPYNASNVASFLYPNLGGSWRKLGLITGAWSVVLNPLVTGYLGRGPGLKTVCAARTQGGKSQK

SMILES | EC50 (human FFAR1 (GPR40)) [nM] | Efficacy (%) (human FFAR1 (GPR40); class symbols) | CL_obs [1] [mL/min/kg] | Vss_obs [1] [L/kg] | half-life ([1]; mouse, plasma) [h] | Cmax [1, 4] [ng/mL] | Tmax [1, 4] [h] | AUC(0-t) at 7 h [1, 5] [ng·h/mL] | bioavailability ([1]; mouse, plasma, po) [%] | further results
COc1cccc(N2CCC(c3oc4cc([C@@H](CC(=O)O)C5CC5)ccc4c3-c3cccc(C(C)(C)C)c3)CC2)c1 [Compound 12] | 10 to 100 | †† (150 ≥ Efficacy (%) > 100) | 1.9 | 0.52 | 5.02 | 6580 | 2 | 38000 | 44.6 | 
COc1cccc(N2CCC(c3oc4cc([C@@H](CC(=O)O)C5CC5)ccc4c3-c3ccc(C(C)(C)C)cc3)CC2)c1 [Compound 14] | 10 to 100 | ††† (Efficacy (%) > 150) |  |  |  |  |  |  |  | Blood Glucose (normal C57BL6/J mice; 0 minutes after glucose (2 g/kg)): 7.58 ± 0.59 mmol/L; Blood Glucose (normal C57BL6/J mice; 15 minutes after glucose (2 g/kg)): 11.08 ± 2.04 mmol/L; Blood Glucose (normal C57BL6/J mice; 30 minutes after glucose (2 g/kg)): 9.17 ± 1.37 mmol/L; Blood Glucose (normal C57BL6/J mice; 60 minutes after glucose (2 g/kg)): 7.6 ± 1.34 mmol/L; Blood Glucose (normal C57BL6/J mice; 90 minutes after glucose (2 g/kg)): 6.52 ± 2 mmol/L; Blood Glucose (normal C57BL6/J mice; 120 minutes after glucose (2 g/kg)): 5.87 ± 1.13 mmol/L; AUC 0-120 minutes (normal C57BL6/J mice; 1 mg/kg): 941±62.00; AUC 0-120 minutes (normal C57BL6/J mice; listed as compound 14, 1 mg/kg): significantly reduced
COc1cccc(N2CCC(c3oc4cc([C@@H](CC(=O)O)C5CC5)ccc4c3-c3cnn(C(C)(C)C)c3)CC2)c1 [Compound 38] | 10 to 100 | ††† (Efficacy (%) > 150) | 2.3 | 0.405 | 2.41 | 8600 | 2 | 55400 | 77.4 | 
COc1ccc(F)c(N2CCC(c3oc4cc([C@@H](CC(=O)O)C5CC5)ccc4c3-c3cnn(C(C)(C)C)c3)CC2)c1 [Compound 89] | 100 to 500 | †† (150 ≥ Efficacy (%) > 100) | 1.3 | 0.546 |  |  |  |  |  | half-life ([1]; male, ICR, mouse, plasma): 5.46 h; bioavailability ([1]; male, ICR, mouse, plasma, oral): 73.7%; Cmax [1, 6]: 11100 ng/mL; Tmax [1, 6]: 2 h; AUC(0-t) ([1]; male, ICR, mouse, plasma, po, Gavage Administration (10 mg/kg), read-out: AUC0-7 h): 92200 ng·h/mL
COc1ccc(F)c(N2CCC(c3oc4cc(C(CC(=O)O)C5CC5)ccc4c3-c3cccc(C(C)(C)C)c3)CC2)c1 (stereo not drawn) [Compound 165] | 100 to 500 | ††† (Efficacy (%) > 150) |  |  |  |  |  |  |  | Plasma Concentration (ng/mL) or Tissue Concentration (ng/g): Blood [2]: 842 ng/mL; Plasma Concentration (ng/mL) or Tissue Concentration (ng/g): Heart [2]: 418 ng/g; Plasma Concentration (ng/mL) or Tissue Concentration (ng/g): Liver [2]: 1548 ng/g; Plasma Concentration (ng/mL) or Tissue Concentration (ng/g): Plasma [2]: 1290 ng/mL
COc1ccc(F)c(N2CCC(c3oc4cc([C@@H](CC(=O)O)C5CC5)ccc4c3-c3cccc(C(C)(C)C)c3)CC2)c1 [Compound 166] | 10 to 100 | †† (150 ≥ Efficacy (%) > 100) | 1.6 | 0.668 | 6.7 | 4950 | 4 | 48100 | 48 | 
COc1ccc(F)c(N2CCC(c3oc4cc(C(CC(=O)O)C5CC5)ccc4c3-c3ccc(C(C)(C)C)cc3)CC2)c1 (stereo not drawn) [Compound 168] | 100 to 500 | ††† (Efficacy (%) > 150) | 2.1 | 0.494 | 3.9 | 3470 | 3 | 15400 | 24 | Plasma Concentration (ng/mL) or Tissue Concentration (ng/g): Blood [2]: 936 ng/mL; Plasma Concentration (ng/mL) or Tissue Concentration (ng/g): Heart [2]: 485 ng/g; Plasma Concentration (ng/mL) or Tissue Concentration (ng/g): Liver [2]: 1923 ng/g; Plasma Concentration (ng/mL) or Tissue Concentration (ng/g): Plasma [2]: 1550 ng/mL
CCCCCCC(C)(C)c1nnc(-c2c(C3CCN(c4cccc(OC)c4)CC3)oc3cc(C(CC(=O)O)C4CC4)ccc23)o1 (stereo not drawn) [Compound 452] | 10 to 100 | †† (150 ≥ Efficacy (%) > 100) |  |  |  |  |  |  |  | 
COc1ccc(Cl)cc1C(=O)NCCc1ccc(S(=O)(=O)NC(=O)NC2CCCCC2)cc1 [Glibenclamide, reference compound] |  |  |  |  |  |  |  |  |  | AUC0-120 minutes (mmol*min) [3]: 492±50.30** mmol*min
CC(C)c1cc(Oc2c(Cl)cc(-n3nc(C#N)c(=O)[nH]c3=O)cc2Cl)n[nH]c1=O [MGL3196, reference compound] |  |  |  |  |  |  |  |  |  | Hepatic Hydroxyproline (C57BL6/J mice; liver): 173.63 ± 32.06 µg/g; Total Liver Hydroxyproline (µg/liver) (C57BL6/J mice; liver): 313.58±98.24 µg/liver; ALT (U/L) (C57BL6/J mice; serum): 140±63.06 U/L; AST (U/L) (C57BL6/J mice; serum): 242±67.42 U/L
COc1ccc(C(=O)N(CC(C)(C)C)c2cccc(C)n2)c(N2CCC(COc3cc([C@@H](CC(=O)O)C4CC4)ccn3)CC2)c1 [SCO-267, SCO267, reference compound] | 10 to 100 |  |  |  |  |  |  |  |  | Efficacy (%) (human FFAR1 (GPR40); [7]): 100%
Cc1cc(OCCCS(C)(=O)=O)cc(C)c1-c1cccc(COc2ccc3c(c2)OC[C@H]3CC(=O)O)c1 [TAK875, reference compound] |  |  |  |  |  |  |  |  |  | Efficacy (%) (human FFAR1 (GPR40); [7]): 65%
